Source: patent US20150018325A1, “METHOD FOR LATE POST COITAL CONTRACEPTION USING ULIPRISTAL ACETATE” (LABORATOIRE HRA-PHARMA, priority 2010, published 2015)
Values joined by “and” are separate entries in the source; they are usually repeats but may differ in a detail not shown here. Equal values may be shown once. “Also recorded” adds a separate entry of the source.

How the values were obtained:
[1] = tested on: women presenting 48-120 hours after unprotected intercourse; assay: Prospective multicenter, open label study of ulipristal acetate as emergency contraception 48-120 hours after unprotected intercourse (Example 1); type: in vivo; conditions: for Observed Pregnancy Rate (%): single 30 mg dose
Protocol: Women 18 and older who presented for emergency contraception at family planning clinics located in the United States, 48-120 hours after UPI and who met the inclusion/exclusion criteria were enrolled into the study after signing the IRB approved informed consent. The inclusion criteria were regular menstrual cycles 24-35 (+/−5) days in length, no current use of hormonal contraception, willingness not to use hormonal contraception until study completion, and agreement to use barrier methods of contraception from enrollment to study completion. Exclusion criteria included pregnancy, breastfeeding, IUD, tubal ligation or partner vasectomy, and uncertainty about recent menstrual history.
A total of up to three visits were scheduled over the course of the study. The first visit, considered Day 1, included the screening and treatment phases. A high sensitivity urine pregnancy test (level of detection 20 mIU/ml) was performed and a blood sample was taken and stored for later serum quantitative β-hCG testing to exclude pre-existing pregnancy if a pregnancy was detected during the study.
Women were provided daily diaries in which to record further acts of intercourse, contraception used, vaginal spotting or bleeding, concomitant medication and adverse events during study duration.
At follow-up visit (5-7 days after expected onset of menses) a high-sensitivity urine pregnancy test was systematically performed. If the urine pregnancy was positive, this was confirmed by a serum β-hCG test. The pre-treatment serum specimen was also assayed for β-hCG to verify whether the pregnancy pre-dated intake of the study drug. Confirmed pregnancies were further evaluated by scrum quantitative hCG(s) and transvaginal ultrasound(s) to determine the estimated fertilization date.
Women could enroll in the study more than once but they must have completed prior study participation before re-enrolling.
The primary efficacy measurement was the pregnancy rate, defined as the number of pregnancies after administration of ulipristal acetate for EC divided by the number of women treated. The primary efficacy analysis compared this pregnancy rate to the pregnancy rate that would have been expected in the absence of EC treatment, which was calculated according to Trussell's method (Trussell et al, 1998) using the pooled recognizable set of conception probabilities and the estimated cycle day of UPI based on self-reported date of last menstrual period, cycle length and date of UPI.
The main secondary efficacy analysis compared the upper bound of the 95% confidence interval of the observed pregnancy rate to a clinical irrelevance threshold of 4%. This threshold corresponds to a reduction by half of the expected 8% pregnancy rate in the absence of contraception as observed in previous international studies (Von Hertzen et al, 1998; Piaggio, 1999; Von Hertzen et al, 2002). The study was to be considered a success only if both the primary efficacy and the main secondary analyses were conclusive. Other secondary analyses included calculation of the prevented fraction, defined as the number of pregnancies prevented (expected minus observed) divided by the number of pregnancies expected, and analysis of trend in pregnancy rates over time (by 24-hour interval) using a logistic regression model.
The population analyzed for primary efficacy excluded women who were lost to follow-up and women ages 36 and older due to reduced fertility in this age category based upon FDA guidance. Further participations in the study allowed by protocol were also excluded from primary efficacy evaluation, as well as pregnancies that were determined as not compatible with study drug failure by a Data Safety Monitoring Board (DSMB) consisting of independent experts.
Study enrolment was stopped once 1200 subjects meeting the criteria for the primary efficacy analysis had completed the study.

[2] = tested on: women presenting 0-120 hours after unprotected intercourse; assay: Prospective multicenter, single-blind randomized study of ulipristal acetate versus levonorgestrel as emergency contraception 0-120 hours after unprotected intercourse (Example 2); type: in vivo
Protocol: This was a prospective, single-blind (subject and sponsor blind, investigator not blind), randomized, multicenter, 2-arm parallel comparative study designed to evaluate the efficacy of a single dose of ulipristal acetate (30 mg tablets) compared to levonorgestrel (1.5 mg) administered for EC within 120 hours after unprotected intercourse. It was performed in 10 centers in Europe and 25 centers in the US. Women ([…]), with regular menstrual cycles (between 24 and 35 days and intra-individual variations less than or equal to 5 days), who presented for EC within 120 hours after unprotected intercourse at a participating study site and who met the inclusion/exclusion criteria were enrolled into the study after they signed informed consent form. Subjects were excluded from the study in case of ongoing pregnancy or breast-feeding or current use of hormonal contraception or IUD. The study medication (ulipristal acetate 30 mg or levonorgestrel 1.5 mg) was administered according to a random allocation procedure generated electronically. Treatment was administered orally immediately after all eligibility criteria (including negative urine pregnancy test) had been verified. At follow-up visit (5-7 days after expected onset of menses) a high-sensitivity urine pregnancy test was systematically performed. If the urine pregnancy was positive, this was confirmed by a serum β-hCG test. The pre-treatment serum specimen was also assayed for β-hCG to verify whether the pregnancy pre-dated intake of the study drug. Confirmed pregnancies were further evaluated by scrum quantitative hCG(s) and transvaginal ultrasound(s) to determine the estimated fertilization date. Based on previous similar clinical trials, pregnancy rates in the ulipristal acetate and levonorgestrel group were expected to be 1% and 1.7% respectively. […] For this comparison, the non-inferiority margin was set to 1.6 in odds ratio (a non-inferiority margin of 1.6 in odds ratio is equivalent to a non-inferiority margin of 1% in percent point with an assumed pregnancy rate with levonorgestrel of 1.7%) with a type I error rate of 5% (two-sided) and 85% power. In order to compensate for an anticipated lost to follow-up rate of 10%, 910 patients per group had to be included in the 0-72 hour time interval. Furthermore, recruitment of patients requesting emergency contraception between 72 h and 120 h was estimated to represent 1 out of 10 patients. Therefore, taking into account recruitment in the 72-120 h interval, 1022 patients per group were to be randomized for a total of 2044 patients. […] In order to ensure unbiased evaluation of pregnancy data, an independent, autonomous DSMB composed of two experts in the field of gynecology, one methodologist and one expert in ethical questions was established to review incidence of pregnancy with respect to unacceptability threshold and give recommendations during the course of the clinical trial. In addition, the DSMB assessed whether each pregnancy was “compatible” or “not compatible” with treatment failure based on available data.

[3] = tested on: women treated with ulipristal acetate in the two trials; assay: Pooled efficacy analysis of Example 1 and Example 2 (Example 3); type: in vivo; conditions: mITT pooled population
Text: When the efficacy data of women treated with ulipristal acetate in the two trials (Example 1 and Example 2) are grouped in a pooled analysis, further evidence of the efficacy of the method is provided.

[4] = used within 72 hours of UPI; cited from earlier work
[5] = 48-72 h after UPI, mITT population
[6] = >72-96 h after UPI, mITT population
[7] = >96-120 h after UPI, mITT population
[8] = 0-72 h mITT, ulipristal acetate 30 mg or levonorgestrel 1.5 mg single oral dose
[9] = >24 to <=48 hours relative to the previous 24 hrs time interval, mITT
[10] = >48 to <=72 hours relative to the previous 24 hrs time interval, mITT
[11] = >72 to <=96 hours relative to the previous 24 hrs time interval, mITT
[12] = mITT, unprotected intercourse within 72 hours of EC intake (p=0.253)
[13] = mITT, unprotected intercourse within 120 hours of EC intake (p=0.127)

## CC(=O)O[C@]1(C(C)=O)CC[C@H]2[C@@H]3CCC4=CC(=O)CCC4=C3[C@@H](c3ccc(N(C)C)cc3)C[C@@]21C [ulipristal acetate, 17α-acetoxy-11β-[4-N,N-dimethylamino-phenyl)-19-norpregna-4,9-diene-3,20-dione]
[1]; [5]
  Effectiveness (Prevented Fraction): 61.9%
  Observed Pregnancy Rate (%): 2.3%
[1]; [6]
  Effectiveness (Prevented Fraction): 57.9%
  Observed Pregnancy Rate (%): 2.1%
[1]; [7]
  Effectiveness (Prevented Fraction): 75.0%
  Observed Pregnancy Rate (%): 1.3%
[1]; All (48-120 h after UPI), mITT / Primary Efficacy Population
  Observed Pregnancy Rate (%): 2.1%
[1]; All (48-120 h after UPI), mITT population, expected pregnancies by Trussell's method
  Effectiveness (Prevented Fraction): 62.3%
[1]; Safety Population of 1533 women, 48-120 h after UPI
  observed pregnancy rate: 1.9%
[1]; all women enrolled, before DSMB exclusion of 3 pregnancies
  pregnancies detected at follow-up: 29
[1]; by 24-hour interval, 48-120 h after UPI, p=0.2490
  linear trend of pregnancy rates over time (logistic regression model): no evidence of change in efficacy over time
[2]; 0-72 h mITT (n = 1694)
  Pregnancy Rate n: 15
[2]; [8]
  Pregnancy Rate (%): 1.78%
[2]; 0-72 h mITT, ulipristal acetate 30 mg or levonorgestrel 1.5 mg single oral dose, listed as Ulipristal acetate
  Pregnancy Rate (%): 1.8%
[2]; 0-120 h mITT
  Pregnancy Rate (%): 1.60%
[2]; 0-120 h mITT (n = 1899)
  Pregnancy Rate n: 15
[2]; 0-120 h mITT, listed as Ulipristal acetate
  Pregnancy Rate (%): 1.6%
[2]; 72-120 h mITT
  Pregnancy Rate (%): 0.0%
[2]; 72-120 h mITT (n = 203)
  Pregnancy Rate n: no pregnancy was observed
[2]; 72-120 h mITT (n = 203), listed as Ulipristal acetate
  Pregnancy Rate n: 0
[2]; >0 to <=24 hours from unprotected intercourse to treatment, mITT
  Pregnancy Rate (%): 1.6%
[2]; >24 to <=48 hours from unprotected intercourse to treatment, mITT
  Pregnancy Rate (%): 2.13% and 2.1%
[2]; [9]
  Odds ratio: 1.33
[2]; >48 to <=72 hours from unprotected intercourse to treatment, mITT
  Pregnancy Rate (%): 1.48% and 1.5%
[2]; [10]
  Odds ratio: 0.69
[2]; [11]
  Odds ratio: 0.00
[2]; [12]
  prevented expected pregnancies: 68.1%
[2]; [13]
  prevented expected pregnancies: 72.2%
[2]; p<0.05 one-sided randomization test within 120 hours, p<0.05 two-sided between 72 and 120 hours, mITT
  pregnancies prevented compared to the expected pregnancy rate, ulipristal acetate versus levonorgestrel: significantly more pregnancies were prevented with ulipristal acetate than levonorgestrel
[3]; 0-24 h
  Overall observed pregnancy rate (%) (pooled): 1.60%
[3]; >24-48 h
  Overall observed pregnancy rate (%) (pooled): 2.07%
[3]; >48-72 h
  Overall observed pregnancy rate (%) (pooled): 2.16%
[3]; >72-96 h
  Overall observed pregnancy rate (%) (pooled): 1.76%
[3]; >96-120 h
  Overall observed pregnancy rate (%) (pooled): 1.04%
[4]
  efficacy for preventing pregnancy compared with levonorgestrel: as effective as levonorgestrel; also recorded: as efficacious as levonorgestrel

## C#C[C@]1(O)CC[C@H]2[C@@H]3CCC4=CC(=O)CC[C@@H]4[C@H]3CC[C@@]21CC [levonorgestrel]
[2]; 0-72 h mITT (n = 1694)
  Pregnancy Rate n: 22
[2]; [8]
  Pregnancy Rate (%): 2.59%
[2]; 0-72 h mITT, ulipristal acetate 30 mg or levonorgestrel 1.5 mg single oral dose, listed as Levonorgestrel
  Pregnancy Rate (%): 2.6%
[2]; 0-120 h mITT
  Pregnancy Rate (%): 2.6%
[2]; 0-120 h mITT (n = 1899)
  Pregnancy Rate n: 25
[2]; 72-120 h mITT
  Pregnancy Rate (%): 2.8%
[2]; 72-120 h mITT (n = 203)
  Pregnancy Rate n: 3
[2]; [9]
  Odds ratio: 0.73
[2]; [10]
  Odds ratio: 1.17
[2]; [11]
  Odds ratio: 1.08
[2]; >96 to <=120 hours relative to the previous 24 hrs time interval, mITT
  Odds ratio: 1.11
[2]; [12]
  prevented expected pregnancies: 52.2%
[2]; [13]
  prevented expected pregnancies: 52.8%
